# Source: ChEMBL document CHEMBL1141847, “A new antibiotic nortriterpene quinone methide from Maytenus catingarum” (1999)
# Calls of active or inactive are those of the source. No cut-off for these calls is given here.
# What was measured:
# Candida albicans = assay: Antimicrobial activity against Candida albicans UBC2; assay type: functional, organism-based
# Salmonella typhimurium = assay: Antimicrobial activity against sSalmonella Typhimurium UBC1; assay type: functional, organism-based; details: Salmonella enterica subsp. enterica serovar Typhimurium
# Bacillus subtilis = assay: Antimicrobial activity against Bacillus subtilis CECT39; assay type: functional
# Staphylococcus aureus = assay: Antimicrobial activity against Staphylococcus aureus ATCC 6538; assay type: functional
# Escherichia coli = assay: Antimicrobial activity against Escherichia coli CECT99; assay type: functional, organism-based
smiles,measurement,setting,value
COC(=O)[C@@]1(C)C[C@@H]2[C@](C)(CC1=O)C[C@H](O)[C@]1(C)C3=CC=C4C(=CC(=O)C(O)=C4C)[C@]3(C)CC[C@@]21C,Activity,Candida albicans,inactive
same,Activity,Salmonella typhimurium,inactive
same,MIC,Bacillus subtilis,1.25 mg/L
same,MIC,Staphylococcus aureus,5 mg/L
same,Activity,Escherichia coli,inactive
